Test results taken from US6603023B2 (priority 1996, dated 2003).
Like-named read-outs stand apart in the source and are kept apart here.

Columns and labels:
[1] = test system: human mammary carcinoma MX-1 xenograft; parameters: Toxicity toward Nude Mice: key to the marks not given beside the values; details: for Average Body Weight, Day 7: initial weight, first treatment day
Description: DMSO was used as a vehicle for epothilones. Each mouse received ≦40 μL DMSO in all experiments.
Athymic nude mice (nu/nu) were used for MX-1 and MCF-7/Adr human mammary carcinoma xenografts. Mice were obtained from Taconic Laboratory Animals and Service (Germantown, N.Y.: outbred, Swiss background).

B16 Melanoma = assay type: in vivo, B6D2F1 mice; details: B6D2F1, mouse, in vivo
Description: Body weight was determined at 0, 2, 4, 6, 8, 10 and 12 days. […] Injections were started on day 1. […] Body weight was determined at 0, 2, 4, 6, 8, 10 and 12 days. […] Injections were started on day 1.

[2] = test system: PC-3 Human Prostate Carcinoma; experiment: PC-3 xenograft; assay type: in vivo, nude mice; details: for Average Body Weight, Day 5: initial weight
MCF-7 = experiment: SRB cytotoxicity, MCF-7; assay type: cell-based, human; details: Homo sapiens, MCF7, 72 h
Method in brief: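 Monolayer MCF-7 cultures exposed to six to seven drug concentrations in duplicate, then fixed with trichloroacetic acid and stained 30 min with 0.4% sulforhodamine B. Bound dye extracted with unbuffered Tris base, absorbance read at 570 nm; values derived by median-effect plot analysis.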

[3] = test system: Human CCRF-CEM/VBL Xenograft; experiment: CCRF-CEM/VBL xenograft in scid mice; assay type: in vivo, CB-17 scid mice
[4] = test system: human ovarian adenocarcinoma SK-OV-3
[5] = 5 mg/kg i.p. Q2Dx5 from day 9, day 13
[6] = 5 mg/kg i.p. Q2Dx5 from day 9, day 15
[7] = 5 mg/kg i.p. Q2Dx5 from day 9, day 17
[8] = 5 mg/kg i.p. Q2Dx5 from day 9, day 19
[9] = Taxol 5 mg/kg on day 8-16 and 18-26, n = 10
[10] = Taxol 15 mg/kg i.v. Q2Dx5 from day 9
[11] = Taxol 24 mg/kg, 6 hr i.v. infusion Q2D x 5 (day 8-16)
[12] = dEpo B 30, Taxol 15 mg/kg, 6 hr i.v. infusion Q2D x 5 (day 8-16), TD: Tumor disappearance
[13] = extended experiment, Desoxyepo B 40, Taxol 5 mg/kg i.p. Q2D day 8-16 and 18-26
[14] = high doses: dEpoB 25, EpoB 0.6, Taxol 10, Vinblastine 0.4 mg/kg i.p. Q2D from day 7
[15] = low doses: dEpoB 15, EpoB 0.3, Taxol 5, Vinblastine 0.2 mg/kg i.p. Q2D day 7-15
[16] = male, athymic nude (nu/nu), outbred, Swiss background, mouse, in vivo
[17] = 6 hr i.v. infusion: dEpoB 40, Taxol 24 mg/kg
[18] = PC-3 Prostate, dEpoB 40 mg/kg Q2D x 3, Taxol 15 mg/kg Q2D x 3
[19] = dEpoB 30 mg/kg 18 hr i.v. infusion, Taxol 16 mg/kg 6 hr infusion, VBL 2 and VP-16 25 mg/kg i.v. inj
[20] = dose 2.0 i.p. QD d7-10,14,15, day 12
[21] = dose 2.0 i.p. QD d7-10,14,15, day 17
[22] = dose 2.0 i.p. QD d7-10,14,15, day 22
[23] = dose 4.0 i.p. QD d7-10,14,15, day 12
[24] = dose 4.0 i.p. QD d7-10,14,15, day 17
[25] = dose 4.0 i.p. QD d7-10,14,15, day 22
[26] = SK-OV-3 Ovary, dEpoB 30 mg/kg Q2D x 6, Taxol 15 mg/kg Q2D x 6

## CC(=O)O[C@H]1C(=O)[C@@]2(C)[C@H]([C@H](OC(=O)c3ccccc3)[C@]3(O)C[C@H](OC(=O)[C@H](O)[C@@H](NC(=O)c4ccccc4)c4ccccc4)C(C)=C1C3(C)C)[C@]1(OC(C)=O)CO[C@@H]1C[C@@H]2O [Taxol ®, paclitaxel]
[1]; 5 mg/kg i.p. Q2Dx5 from day 7, day 11
  Average Body Weight Change: -0.1 g
[1]; 5 mg/kg i.p. Q2Dx5 from day 7, day 13
  Average Body Weight Change: +0.4 g
[1]; 5 mg/kg i.p. Q2Dx5 from day 7, day 15
  Average Body Weight Change: +1.1 g
[1]; 5 mg/kg i.p. Q2Dx5 from day 7, day 17
  Average Body Weight Change: +1.2 g
[1]; 5 mg/kg i.p. Q2Dx5 from day 9
  Tumor Disapp.: 0/6
[1]; [5]
  Average Body Weight Change: -1.1 g
[1]; [6]
  Average Body Weight Change: -2.0 g
[1]; [7]
  Average Body Weight Change: -1.0 g
[1]; [8]
  Average Body Weight Change: -0.2 g
[1]; 5 mg/kg i.p. d8,10,12,14,16
  Tumor Disappearance: 2/10
[1]; 5 mg/kg i.p. d18-26, extended after d8-16, day 20
  Tumor Disappearance: 0/10^
[1]; 5 mg/kg i.p. d18-26, extended after d8-16, day 22
  Tumor Disappearance: 0/10
[1]; 5 mg/kg i.p. d18-26, extended after d8-16, day 24
  Tumor Disappearance: 0/10
[1]; 5 mg/kg i.p. d18-26, extended after d8-16, day 26
  Tumor Disappearance: 0/10
[1]; 5 mg/kg i.p. d18-26, extended after d8-16, day 28
  Tumor Disappearance: 0/10
[1]; 10 mg/kg i.p. Q2Dx5 from day 7, day 11
  Average Body Weight Change: -2.7 g
[1]; 10 mg/kg i.p. Q2Dx5 from day 7, day 13
  Average Body Weight Change: -1.1 g
[1]; 10 mg/kg i.p. Q2Dx5 from day 7, day 15
  Average Body Weight Change: -0.3 g
[1]; 10 mg/kg i.p. Q2Dx5 from day 7, day 17
  Average Body Weight Change: +2.2 g
[1]; 10 mg/kg i.p. d8,10,12,14,16
  Tumor Disappearance: 2/6
[1]; 10 mg/kg, no extended test
  tumor reappeared on day: Reappeared on day 38
[1]; 10 mg/kg, no extended test, day 16
  Tumor Disappearance: 1/6 on day 16
[1]; MX-1, dEpoB 30 mg/kg Q2D x 6, Taxol 15 mg/kg Q2D x 6
  Lowest Average Tumor Size (T/C): 0 T/C
[1]; Taxol 5 mg/kg i.p. Q2Dx5 from day 8
  tumor volume reduction: 53%
[1]; [9]
  Tumor Size (group average), Day 8: 17 mm^3
  Tumor Size (group average), Day 10: 45 mm^3
  Tumor Size (group average), Day 12: 54 mm^3
  Tumor Size (group average), Day 14: 128 mm^3
  Tumor Size (group average), Day 16: 311 mm^3
  Tumor Size (group average), Day 18: 596 mm^3
  Tumor Size (group average), Day 20: 1114 mm^3
  Tumor Size (group average), Day 22: 1930 mm^3
  Tumor Size (group average), Day 24: 2285 mm^3
[1]; Taxol 10 mg/kg, no extended test
  Tumor reappearance (Reappear on day): Reappear on day 38
[1]; Taxol 10 mg/kg, on day 16, no extended test
  Tumor Disappearance: 1/6 on day 16,
[1]; [10]
  Tumor Disapp.: 2/6
[1]; [11]
  Average Body Weight (change), Day 14: -4.8 g
  Average Body Weight (change), Day 16: -5.3 g
  Average Body Weight (change), Day 18: -6.0 g
  Average Body Weight (change), Day 20: -6.2 g
  Tumor Disappearance: 4/4
[1]; Taxol 24 mg/kg, 6 hr i.v. infusion Q2D x 5 (day 8-16), TD: Tumor disappearance
  Average Tumor Size (T/C), Day 14: 0.03 T/C
[1]; dEpo B 30, Taxol 15 mg/kg, 6 hr i.v. infusion Q2D x 5 (day 8-16)
  Tumor Disappearance: 4/4
[1]; [12]
  Average Tumor Size (T/C), Day 14: 0.06 T/C
  Average Tumor Size (T/C), Day 16: 0.01 T/C
[1]; [13]
  Average Body Weight Change, Day 20: -1.6 g
  Average Body Weight Change, Day 22: -0.3 g
  Average Body Weight Change, Day 24: +0.1 g
  Average Body Weight Change, Day 26: -0.6 g
  Average Body Weight Change, Day 28: -0.4 g
  Tumor Disappearance, Day 20: 0/10
  Tumor Disappearance, Day 22: 0/10
  Tumor Disappearance, Day 24: 0/10
  Tumor Disappearance, Day 26: 0/10
  Tumor Disappearance, Day 28: 0/10
[1]; [14]
  Average Tumor Volume (T/C), Day 11: 0.43 T/C
  Average Tumor Volume (T/C), Day 13: 0.37 T/C
  Average Tumor Volume (T/C), Day 15: 0.12 T/C
  Average Tumor Volume (T/C), Day 17: 0.11 T/C
  Average Body Weight, Day 7: 27.6 g
[1]; [15]
  Average Body Weight, Day 7: 26.9 g
  Average Tumor Volume (T/C), Day 11: 0.54 T/C
  Average Tumor Volume (T/C), Day 13: 0.46 T/C
  Average Tumor Volume (T/C), Day 15: 0.40 T/C
  Average Tumor Volume (T/C), Day 17: 0.45 T/C
[1]; male, athymic nude (nu/nu), mouse, in vivo
  # Mice Died: 0/10
[1]; [16]
  # Died of toxicity: 2/10
  # Mice Died: 1/6
  lethality: 2/6
  lethality (mice died of toxicity): 2/10
  mice died of toxicity: 2 out of 10
[1]; mouse, in vivo
  Tumor Disappearance: 5/5
  mice died of toxicity: four out of seven
[1]; mouse, in vivo, ip, 15 mg/kg
  Toxicity toward Nude Mice: ++++
[1]; mouse, in vivo, ip, 35 mg/kg
  Toxicity toward Nude Mice: ++
[1]; mouse, in vivo, iv, 15 mg/kg
  Toxicity toward Nude Mice: ++
[1]; mouse, in vivo, iv, 24 mg/kg
  Toxicity toward Nude Mice: ++
[1]; mouse, in vivo, iv, 30 mg/kg
  Toxicity toward Nude Mice: ++
[1]; paclitaxel 5 mg/kg
  reduction in tumor volume: 55%
[1]; paclitaxel 5 mg/kg Q2Dx5 i.p. d8-16 and d18-26, n=10
  average tumor size on day 24: 2285±97 mm^3
[1]; paclitaxel 10 mg/kg
  tumor reduction: 89%
B16 Melanoma
  # Mice Died: 0/8
[2]; [17]
  Average Body Weight (change), Day 9: -2.2 g
  Average Body Weight (change), Day 11: -2.8 g
  Average Body Weight (change), Day 13: -0.8 g
  Average Tumor Size (TC), Day 9: 0.18 TC
  Average Tumor Size (TC), Day 11: 0.05 TC
  Average Tumor Size (TC), Day 13: 0.06 TC
  Tumor Disappearance: 2/4
  Average Body Weight, Day 5: 28.8 g
[2]; [18]
  Lowest Average Tumor Size (T/C): 0.02 T/C
  Tumor Disappearance: 0
[2]; [19]
  Average Body Weight (change), Day 9: -1.1 g
  Average Body Weight (change), Day 11: -0.9 g
  Average Body Weight (change), Day 13: +0.4 g
  Average Tumor Size (TC), Day 9: 0.34 TC
  Average Tumor Size (TC), Day 11: 0.09 TC
  Average Tumor Size (TC), Day 13: 0.02 TC
  Tumor Disappearance: 0/4
  Average Body Weight, Day 5: 26.6 g
MCF-7
  IC50: 3.3 nM
[3]; dose 2.0 i.p. QD d7-10,14,15, day 7
  Average weight change: 0
[3]; [20]
  Average tumor volume (control = 1.00): 0.60
  Average weight change: −0.9
[3]; [21]
  Average tumor volume (control = 1.00): 0.58
  Average weight change: −1.5
[3]; [22]
  Average tumor volume (control = 1.00): 0.70
  Average weight change: −0.1
[3]; dose 4.0 i.p. QD d7-10,14,15, day 7
  Average weight change: 0
[3]; [23]
  Average tumor volume (control = 1.00): 0.79
  Average weight change: −1.4
[3]; [24]
  Average tumor volume (control = 1.00): 0.55
  Average weight change: −1.6
[3]; [25]
  Average tumor volume (control = 1.00): 0.41
  Average weight change: −0.9
[4]; 5 mg/kg i.p. Q2Dx5 from day 9
  Tumor Disapp.: 0/6
[4]; [5]
  Average Body Weight Change: -1.1 g
[4]; [6]
  Average Body Weight Change: -2.0 g
[4]; [7]
  Average Body Weight Change: -1.0 g
[4]; [8]
  Average Body Weight Change: -0.2 g
[4]; [26]
  Lowest Average Tumor Size (T/C): 0.02 T/C
  Tumor Disappearance: 1/4
[4]; [10]
  Tumor Disapp.: 0/6
[4]; Taxol 15 mg/kg i.v. Q2Dx5 from day 9, day 13
  Average Body Weight Change: -0.6 g
[4]; Taxol 15 mg/kg i.v. Q2Dx5 from day 9, day 15
  Average Body Weight Change: -0.8 g
[4]; Taxol 15 mg/kg i.v. Q2Dx5 from day 9, day 17
  Average Body Weight Change: -0.8 g
[4]; Taxol 15 mg/kg i.v. Q2Dx5 from day 9, day 19
  Average Body Weight Change: -0.9 g
[4]; nude, mouse, in vivo
  Toxicity Death: 0/6
